Reference: patent publication US10457677B2 (priority 2015, dated 2019)
pIC50: −log10 of the molar value. Read-outs that look alike come from different tables or passages of the source.

Columns and labels:
[1] = target: purified human recombinant ATM (ataxia telangiectasia mutated), full length (Homo sapiens (Human), UniProt Q13315); assay: ATM kinase assay - determination of ATM inhibition (IC50 ATM), TR-FRET; format: biochemical
Procedure, shortened: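 Full-length enzyme, expressed in a mammalian cell line, pre-incubated 15 min with inhibitor in 25 mM HEPES pH 8.0, 10 mM Mg(CH3COO)2, 1 mM MnCl2, 0,1% BSA, 0,01% Brij 35, 5 mM DTT. Full-length cmyc-p53 (Sf21-expressed) and ATP then added, 30-35 min at 22° C. EDTA stop; p53 S15 phosphorylation read by TR-FRET antibodies.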

[2] = system: phosphorylation of CHK2 (phospho-Thr68) in HCT116 cells; assay: Cellular pCHK2 assay: bleomycin-induced phosphorylation of CHK2 (phospho-Thr68), immunofluorescence high-content analysis; format: cell-based, human; details: Homo sapiens, HCT-116, 4 h, read-out: IC50 (pCHK2)
Description: For the identification of substances which inhibit the phosphorylation of the protein kinase CHK2 at the amino acid threonine 68, an immunofluorescence-based “high content” analysis assay was used in HCT116 cells.
In vitro cell-based immunofluorescence assay for the identification of inhibitors of bleomycin-induced phosphorylation of CHK2 (phospho-Thr68) in the human colon carcinoma cell line HCT116:
HCT116 cells are sown out in a defined cell density in 384-well plates in culture medium (DMEM high glucose, 2 mM GlutaMax, 1 mM Na pyruvate, 10% FCS) and incubated overnight at 37° C. and 10% of CO2. On the following day, the test substances are added in a defined concentration range (1 nM to 30 μM) in combination with 10 μM bleomycin, where the concentration of the solvent DMSO is kept constant at 0.5%. […] Parallel staining of DNA with propidium iodide enables determination of the cell count. The pCHK2 signal is detected using a high-content imager (Molecular Devices IMX Ultra) and automatic image analysis using the MetaXpress software belonging to the instrument. The number of cell nuclei which have a pCHK2 signal above a defined background is determined.

[3] = target: mTOR (human) (Homo sapiens (Human), UniProt P42345); assay: mTOR (human) kinase assay, [γ-33P-ATP] filter assay; format: biochemical
Procedure: Furthermore, the effect, in particular inhibition, of other kinases and thus the selectivity of the compounds according to the invention can be determined with the aid of the following assay:
mTOR (human) was incubated with 50 mM HEPES pH 7.5, 1 mM EGTA, 0.01% Tween 20, 2 mg/ml of the substrate, 3 mM MnCl2 and [γ-^33P-ATP] (specific activity approximately 500 cpm/pmol, concentration as necessary). The reaction was initiated by addition of MgATP solution. After incubation at room temperature for 40 minutes, the reaction was stopped by addition of 3% phosphoric acid. 10 μl of the reaction solution were then transferred dropwise onto a P30 filtermat and washed three times for 5 min in 75 mM phosphoric acid and once in methanol, dried and evaluated by means of liquid scintillation counting.

[4] = target: PI3K p110α/p85α (human) (Homo sapiens (Human), UniProt P42336); assay: PI3K p110α/p85α (human), non-radioactive assay (HTRF); format: biochemical; details: for pIC50: read-out: IC50 (PI3Kalpha); for ratio IC50 (ATM) vs PI3Kalpha, selectivity with respect to PI3Kalpha: as printed:
Procedure: PI3K p110α/p85α (Human), Non-radioactive Assay
(§1) PI3K p110α/p85α (human) was incubated in an assay buffer comprising 10 μM phosphati-dylinositol 4,5-bisphosphate and MgATP (concentration as necessary). The reaction was initiated by addition of MgATP solution. After incubation at room temperature for 40 minutes, the reaction was stopped by addition of a solution consisting of EDTA and biotinylated phosphatidylinositol 3,4,5-trisphosphate. Finally, the detection buffer, consisting of a europium-labelled anti-GST monoclonal antibody, a GST-labelled GRP1 PH domain and streptavidin allophycocyanin, was added. The plate was read out via homogeneous time-resolved fluorescence (HTRF) and the corresponding signals were evaluated via the formula HTRF=10000×(Em665nm/Em620nm).

[5] = target: PI3K p110δ/p85α (human) (Homo sapiens (Human), UniProt O00329); assay: PI3K p110δ/p85α (human), non-radioactive assay (HTRF); format: biochemical; details: for pIC50: read-out: IC50 (PI3Kdelta); for ratio IC50 (ATM) vs PI3Kdelta, selectivity with respect to PI3Kdelta: as printed:
Procedure: PI3K p110δ/p85α (Human), Non-radioactive Assay
as §1, with “p110δ/p85α” for “p110α/p85α”, “After an” for “After”, “incubation time of 30 min” for “incubation”, “temperature,” for “temperature for 40 minutes,”

[6] = target: PI3K (p120γ) (human) (Homo sapiens (Human), UniProt P48736); assay: PI3K (p120γ) (human), non-radioactive assay (HTRF); format: biochemical; details: for pIC50: read-out: IC50 (PI3Kgamma); for ratio IC50 (ATM) vs PI3Kgamma, selectivity with respect to PI3Kgamma: as printed:
Procedure: PI3K (p120γ) (Human), Non-radioactive Assay
as §1, with “(p120γ)” for “p110α/p85α”, “After an” for “After”, “incubation time of 30 min” for “incubation”, “temperature,” for “temperature for 40 minutes,”, “HTRF=10000×(Em665nm/Em620nm). • MgATP=magnesium 5′-O—[hydroxy({[(hydroxyphosphinato)oxy]phosphinato}oxy)phosphoryl]adenosine • MgCl2=magnesium dichloride • EGTA=ethylene glycol bis(aminoethyl ether) N,N,N′,N′-tetraacetic acid • Tween 20=polysorbate 20 Medicament/pharmaceutical Composition” for “HTRF=10000×(Em665nm/Em620nm).”

[7] = target: PI3K p110β/p85α (human) (Homo sapiens (Human), UniProt P42338); assay: PI3K p110β/p85α (human), non-radioactive assay (HTRF); format: biochemical; details: IC50 (ATM) at least 2000 times higher compared with IC50 (PI3Kbeta)
PI3K p110β/p85α (human), sequence (P42338 whole entry): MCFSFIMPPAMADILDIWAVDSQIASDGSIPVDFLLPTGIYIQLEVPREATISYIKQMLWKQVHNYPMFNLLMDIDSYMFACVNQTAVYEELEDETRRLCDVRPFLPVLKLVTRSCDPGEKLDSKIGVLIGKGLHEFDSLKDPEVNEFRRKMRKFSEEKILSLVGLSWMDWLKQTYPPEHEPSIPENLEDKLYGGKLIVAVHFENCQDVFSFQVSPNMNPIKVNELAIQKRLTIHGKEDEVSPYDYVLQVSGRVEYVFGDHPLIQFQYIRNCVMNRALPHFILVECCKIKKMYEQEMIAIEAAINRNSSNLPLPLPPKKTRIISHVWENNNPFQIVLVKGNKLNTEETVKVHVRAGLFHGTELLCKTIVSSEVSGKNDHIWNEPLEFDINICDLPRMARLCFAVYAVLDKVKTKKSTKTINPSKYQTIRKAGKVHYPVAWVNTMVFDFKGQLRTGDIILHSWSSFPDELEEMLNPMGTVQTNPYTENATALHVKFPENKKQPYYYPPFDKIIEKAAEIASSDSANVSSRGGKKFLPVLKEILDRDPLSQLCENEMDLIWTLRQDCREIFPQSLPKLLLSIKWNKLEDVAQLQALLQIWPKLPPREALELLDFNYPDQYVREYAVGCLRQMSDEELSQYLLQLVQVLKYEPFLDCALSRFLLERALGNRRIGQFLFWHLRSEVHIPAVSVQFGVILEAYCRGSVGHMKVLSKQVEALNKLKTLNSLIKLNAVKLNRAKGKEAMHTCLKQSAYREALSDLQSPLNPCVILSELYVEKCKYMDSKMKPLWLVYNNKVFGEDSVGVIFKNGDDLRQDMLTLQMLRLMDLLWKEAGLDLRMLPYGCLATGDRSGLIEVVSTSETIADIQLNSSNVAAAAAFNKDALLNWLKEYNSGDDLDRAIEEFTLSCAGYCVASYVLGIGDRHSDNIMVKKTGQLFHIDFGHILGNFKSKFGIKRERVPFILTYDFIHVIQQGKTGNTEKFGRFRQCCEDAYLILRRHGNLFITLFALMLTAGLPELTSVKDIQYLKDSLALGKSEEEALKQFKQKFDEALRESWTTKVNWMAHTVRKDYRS
PI3K p110β/p85α (human), sequence (P27986 whole entry partner): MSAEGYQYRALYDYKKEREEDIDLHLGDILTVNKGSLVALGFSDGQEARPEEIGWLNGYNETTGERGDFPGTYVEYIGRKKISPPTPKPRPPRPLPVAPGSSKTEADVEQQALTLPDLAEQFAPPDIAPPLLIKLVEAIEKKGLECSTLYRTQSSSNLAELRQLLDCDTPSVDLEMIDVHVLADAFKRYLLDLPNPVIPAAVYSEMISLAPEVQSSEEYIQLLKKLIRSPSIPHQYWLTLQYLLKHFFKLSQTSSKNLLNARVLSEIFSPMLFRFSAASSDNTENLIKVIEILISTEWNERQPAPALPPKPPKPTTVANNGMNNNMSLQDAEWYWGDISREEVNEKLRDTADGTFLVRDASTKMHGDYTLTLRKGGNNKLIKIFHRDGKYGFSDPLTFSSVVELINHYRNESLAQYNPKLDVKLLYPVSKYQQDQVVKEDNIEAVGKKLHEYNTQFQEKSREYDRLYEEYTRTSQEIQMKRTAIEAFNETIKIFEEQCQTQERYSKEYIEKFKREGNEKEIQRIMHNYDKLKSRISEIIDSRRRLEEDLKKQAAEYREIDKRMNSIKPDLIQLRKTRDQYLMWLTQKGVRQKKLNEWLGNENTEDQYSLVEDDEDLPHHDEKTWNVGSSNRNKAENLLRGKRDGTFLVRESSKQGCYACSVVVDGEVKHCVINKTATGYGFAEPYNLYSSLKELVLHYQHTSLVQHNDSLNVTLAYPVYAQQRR
Procedure: PI3K p110β/p85α (Human), Non-radioactive Assay
as §1, with “p110β/p85α” for “p110α/p85α”, “After an” for “After”, “incubation time of 30 min” for “incubation”, “temperature,” for “temperature for 40 minutes,”

PI3K p110α/p85α (human), sequence (P42336 whole entry): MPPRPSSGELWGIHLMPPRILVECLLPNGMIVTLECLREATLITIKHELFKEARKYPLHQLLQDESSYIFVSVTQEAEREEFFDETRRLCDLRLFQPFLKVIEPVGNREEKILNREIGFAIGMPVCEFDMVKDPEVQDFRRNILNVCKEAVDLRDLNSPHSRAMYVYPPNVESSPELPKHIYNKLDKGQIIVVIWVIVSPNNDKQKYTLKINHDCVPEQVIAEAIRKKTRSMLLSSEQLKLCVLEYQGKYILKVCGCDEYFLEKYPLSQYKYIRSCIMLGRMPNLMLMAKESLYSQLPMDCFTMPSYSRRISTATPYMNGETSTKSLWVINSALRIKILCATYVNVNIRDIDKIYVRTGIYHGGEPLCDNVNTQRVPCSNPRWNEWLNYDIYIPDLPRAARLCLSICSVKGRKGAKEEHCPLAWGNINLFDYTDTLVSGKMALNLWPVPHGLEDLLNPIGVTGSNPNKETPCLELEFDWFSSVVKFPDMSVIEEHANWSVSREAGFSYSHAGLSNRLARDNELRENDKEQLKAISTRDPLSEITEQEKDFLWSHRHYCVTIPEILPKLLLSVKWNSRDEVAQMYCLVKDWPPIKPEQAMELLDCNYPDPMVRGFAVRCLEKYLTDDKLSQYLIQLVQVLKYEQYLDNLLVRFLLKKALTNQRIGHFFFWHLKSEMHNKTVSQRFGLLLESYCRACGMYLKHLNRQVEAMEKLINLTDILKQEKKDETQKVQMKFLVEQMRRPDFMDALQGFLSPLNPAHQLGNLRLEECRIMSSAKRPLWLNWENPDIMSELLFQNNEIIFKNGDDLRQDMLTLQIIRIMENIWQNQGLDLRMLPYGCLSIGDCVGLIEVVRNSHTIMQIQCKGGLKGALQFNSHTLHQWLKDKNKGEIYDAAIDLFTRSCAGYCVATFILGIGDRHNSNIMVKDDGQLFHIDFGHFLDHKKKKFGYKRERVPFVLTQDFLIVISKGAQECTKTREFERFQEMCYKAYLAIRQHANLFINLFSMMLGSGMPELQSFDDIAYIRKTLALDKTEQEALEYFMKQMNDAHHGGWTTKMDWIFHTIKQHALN
PI3K p110α/p85α (human), sequence (P27986 whole entry partner): as the sequence (P27986 whole entry partner) above
PI3K p110δ/p85α (human), sequence (O00329 whole entry): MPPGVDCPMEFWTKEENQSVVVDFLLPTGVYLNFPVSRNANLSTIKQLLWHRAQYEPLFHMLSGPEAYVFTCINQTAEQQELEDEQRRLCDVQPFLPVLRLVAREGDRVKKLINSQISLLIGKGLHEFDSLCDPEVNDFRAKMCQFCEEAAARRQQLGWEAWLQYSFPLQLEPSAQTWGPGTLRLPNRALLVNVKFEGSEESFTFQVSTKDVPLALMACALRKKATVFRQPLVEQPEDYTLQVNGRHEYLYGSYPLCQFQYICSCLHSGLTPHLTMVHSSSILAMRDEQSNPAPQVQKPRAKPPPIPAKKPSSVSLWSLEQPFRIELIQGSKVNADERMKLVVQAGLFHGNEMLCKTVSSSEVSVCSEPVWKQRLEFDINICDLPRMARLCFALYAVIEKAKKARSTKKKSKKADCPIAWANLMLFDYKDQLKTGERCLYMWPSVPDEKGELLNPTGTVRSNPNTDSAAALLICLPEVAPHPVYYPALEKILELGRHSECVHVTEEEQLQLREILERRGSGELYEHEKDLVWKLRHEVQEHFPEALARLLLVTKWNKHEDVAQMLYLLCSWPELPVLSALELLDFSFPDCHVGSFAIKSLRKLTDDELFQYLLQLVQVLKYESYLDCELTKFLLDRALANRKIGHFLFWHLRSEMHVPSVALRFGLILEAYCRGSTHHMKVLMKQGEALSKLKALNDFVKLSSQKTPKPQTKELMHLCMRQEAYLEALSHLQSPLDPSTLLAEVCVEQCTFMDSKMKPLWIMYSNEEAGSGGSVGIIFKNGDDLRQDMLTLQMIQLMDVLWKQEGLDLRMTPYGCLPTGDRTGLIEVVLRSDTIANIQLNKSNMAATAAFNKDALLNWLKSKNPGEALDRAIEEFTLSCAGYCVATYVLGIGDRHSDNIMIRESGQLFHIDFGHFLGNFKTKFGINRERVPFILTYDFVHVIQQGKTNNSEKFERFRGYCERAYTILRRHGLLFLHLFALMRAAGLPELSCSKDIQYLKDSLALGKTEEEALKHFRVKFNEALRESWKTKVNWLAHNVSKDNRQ
PI3K p110δ/p85α (human), sequence (P27986 whole entry partner): as the sequence (P27986 whole entry partner) above
PI3K (p120γ) (human), sequence (P48736 whole entry): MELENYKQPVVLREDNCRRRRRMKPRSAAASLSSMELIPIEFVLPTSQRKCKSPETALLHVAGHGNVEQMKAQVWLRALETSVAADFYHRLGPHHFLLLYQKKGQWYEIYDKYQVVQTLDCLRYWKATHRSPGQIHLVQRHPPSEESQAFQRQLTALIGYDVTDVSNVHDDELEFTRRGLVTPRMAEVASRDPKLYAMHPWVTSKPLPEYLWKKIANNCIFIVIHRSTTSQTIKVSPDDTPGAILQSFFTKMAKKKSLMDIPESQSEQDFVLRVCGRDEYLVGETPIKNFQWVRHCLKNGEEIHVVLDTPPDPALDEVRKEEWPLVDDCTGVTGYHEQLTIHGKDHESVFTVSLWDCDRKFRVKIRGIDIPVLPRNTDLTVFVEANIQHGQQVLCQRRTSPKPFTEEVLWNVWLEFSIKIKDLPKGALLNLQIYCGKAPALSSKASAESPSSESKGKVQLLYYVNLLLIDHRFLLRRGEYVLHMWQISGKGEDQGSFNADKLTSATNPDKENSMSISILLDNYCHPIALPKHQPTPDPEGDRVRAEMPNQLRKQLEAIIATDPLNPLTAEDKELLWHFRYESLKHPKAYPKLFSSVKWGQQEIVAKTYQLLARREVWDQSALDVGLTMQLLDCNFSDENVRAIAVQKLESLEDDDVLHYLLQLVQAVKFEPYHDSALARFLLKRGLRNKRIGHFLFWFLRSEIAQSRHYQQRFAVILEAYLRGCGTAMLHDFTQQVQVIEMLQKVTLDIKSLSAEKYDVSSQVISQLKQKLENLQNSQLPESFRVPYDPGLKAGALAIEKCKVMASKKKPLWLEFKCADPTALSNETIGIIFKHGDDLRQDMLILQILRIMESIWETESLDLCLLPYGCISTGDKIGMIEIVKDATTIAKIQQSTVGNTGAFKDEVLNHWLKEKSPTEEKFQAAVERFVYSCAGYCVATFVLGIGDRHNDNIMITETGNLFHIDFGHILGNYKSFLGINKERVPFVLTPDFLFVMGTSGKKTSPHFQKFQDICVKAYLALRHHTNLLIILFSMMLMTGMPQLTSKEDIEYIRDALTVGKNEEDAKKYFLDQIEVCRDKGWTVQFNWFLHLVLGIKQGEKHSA

Row | Structure (SMILES) | pIC50 [1] | pIC50 ([1]; 10 μM ATP, substrate p53) | pIC50 [2] | pIC50 [3] | pIC50 [4] | pIC50 [5] | pIC50 [6] | fold selectivity for ATM over PI3Kbeta (IC50 PI3Kbeta / IC50 ATM) [7] | ratio IC50 (ATM) vs PI3Kalpha, selectivity with respect to PI3Kalpha [4] | ratio IC50 (ATM) vs PI3Kdelta, selectivity with respect to PI3Kdelta [5] | ratio IC50 (ATM) vs PI3Kgamma, selectivity with respect to PI3Kgamma [6]
1 | CCn1cc(-c2cc3c(cc2OC)ncc2c3n(-c3c(F)cncc3F)c(=O)n2C)cn1 [Compound Example 26, 1-(3,5-Difluoropyridin-4-yl)-8-(1-ethyl-1H-pyrazol-4-yl)-7-methoxy-3-methyl-1,3-dihydroimidazo[4,5-c] quinolin-2-one] | > 9.00 | > 9.00 | > 6.70 | < 4.52 | < 4.52 | < 4.52 | < 4.52 |  |  |  | 
2 | COc1cc2ncc3c(c2cc1-c1cnn(C)c1)n(-c1c(F)cncc1F)c(=O)n3C [Compound Example 22, 1-(3,5-Difluoropyridin-4-yl)-7-methoxy-3-methyl-8-(1-methyl-1H-pyrazol-4-yl)-1,3-dihydroimidazo[4,5-c] quinolin-2-one] | > 9.00 | > 9.00 | > 6.70 | < 4.52 | < 4.52 | < 4.52 | < 4.52 |  |  |  | 
3 | COc1cc2ncc3c(c2cc1-c1cn(C)nc1C)n(-c1c(C)cncc1F)c(=O)n3C [Compound Example 39, 8-(1,3-Dimethyl-1H-pyrazol-4-yl)-1-(3-fluoro-5-methyl-pyridin-4-yl)-7-methoxy-3-methyl-1,3-dihydroimidazo-[4,5-c]quinolin-2-one] | > 9.00 | > 9.00 | 6.00 to 6.70 | < 4.52 | < 4.52 | < 4.52 | < 4.52 |  |  |  | 
4 | CCc1cncc(C)c1-n1c(=O)n(C)c2cnc3cc(OC)c(-c4cnn(C)c4)cc3c21 [Compound Example 54, 1-(3-Ethyl-5-methylpyridin-4-yl)-7-methoxy-3-methyl-8-(1-methyl-1H-pyrazol-4-yl)-1,3-dihydroimidazo[4,5-c]-quinolin-2-one] | > 8.00 | > 8.00 | 6.00 to 6.70 | < 4.52 | < 4.52 | < 4.52 | < 4.52 |  |  |  | 
5 | COc1cc2ncc3c(c2cc1-c1cn[nH]c1)n(-c1ccncc1C)c(=O)n3C [Compound Example 19, 7-Methoxy-3-methyl-1-(3-methylpyridin-4-yl)-8-(1H-pyrazol-4-yl)-1,3-dihydro-imidazo[4,5-c]quinolin-2-one] | > 8.00 | > 8.00 | > 6.70 | < 5.30 | < 4.52 | < 4.52 | < 4.52 |  |  |  | 
6 | COc1ccc(-c2cc3c(cc2OC)ncc2c3n(-c3cn(C)nc3F)c(=O)n2C)cn1 [compound 159, 1-(3-Fluoro-1-methyl-1H-pyrazol-4-yl)-7-methoxy-8-(6-methoxypyridin-3-yl)-3-methyl-1,3-dihydroimidazo-[4,5-c]quinolin-2-one] |  | > 8.00 | 5.70 to 6.00 |  |  |  |  | at least 2000 times |  |  | 
7 | COc1cc2ncc3c(c2cc1-c1c[nH]nc1C)n(-c1ncc(F)cc1F)c(=O)n3C [compound 117, 1-(3,5-Difluoropyridin-2-yl)-7-methoxy-3-methyl-8-(3-methyl-1H-pyrazol-4-yl)-1,3-dihydroimidazo[4,5-c]-quinolin-2-one] |  | > 8.00 | 6.00 to 6.70 |  |  |  |  |  | at least 2000 times | at least 2000 times | at least 2000 times
8 | COc1cc2ncc3c(c2cc1-c1cnn(C)c1)n(-c1cc2[nH]ccc2cn1)c(=O)n3C [compound 120, 7-Methoxy-3-methyl-8-(1-methyl-1H-pyrazol-4-yl)-1-(1H-pyrrolo[3,2-c]pyridin-6-yl)-1,3-dihydroimidazo-[4,5-c]quinolin-2-one] |  | > 9.00 | 6.00 to 6.70 |  |  |  |  |  | at least 2000 times | at least 2000 times | at least 2000 times
9 | CCc1cncc(C)c1-n1c(=O)n(C)c2cnc3cc(OC)c(-c4cnn(CC)c4)cc3c21 [compound 61, 1-(3-Ethyl-5-methylpyridin-4-yl)-8-(1-ethyl-1H-pyrazol-4-yl)-7-methoxy-3-methyl-1,3-dihydroimidazo[4,5-c] quinolin-2-one] | > 8.00 | > 8.00 | 5.70 to 6.00 | < 4.52 | < 4.52 | < 4.52 |  |  |  |  | 
10 | COc1cc2ncc3c(c2cc1-c1cn[nH]c1)n(-c1ccncc1OC)c(=O)n3C [Compound Example 32, 7-Methoxy-1-(3-methoxy-pyridin-4-yl)-3-methyl-8-(1H-pyrazol-4-yl)-1,3-dihydroimidazo[4,5-c]-quinolin-2-one] | > 8.00 | > 8.00 | > 6.70 | < 5.00 | < 4.52 | < 4.52 | < 4.52 |  |  |  | 
11 | COc1cc2ncc3c(c2cc1-c1cnn(C)c1)n(-c1ncc(N2CCNCC2)cc1F)c(=O)n3C [compound 123, 1-(3-Fluoro-5-piperazin-1-yl-pyridin-2-yl)-7-methoxy-3-methyl-8-(1-methyl-1H-pyrazol-4-yl)-1,3-dihydro-imidazo[4,5-c]quinolin-2-one] |  | > 8.00 | 6.00 to 6.70 |  |  |  |  |  | at least 2000 times | at least 2000 times | at least 2000 times
